Measured values from US10035814B2, “Guanine analogs as telomerase substrates and telomere length affectors” (Geron Corporation, priority 2011, dated 2018).
Several values for one entry are separate records, joined by “and”; a condition that tells them apart may be missing. Equal entries are not always repeated.

Columns and labels:
telomerase = telomerase (Homo sapiens (Human), UniProt O14746); assay: Primer extension assay for telomerase activity; format: biochemical; details: for EC50: read-out: Primer Ext. Assay EC50
Sequence of telomerase (O14746 whole entry): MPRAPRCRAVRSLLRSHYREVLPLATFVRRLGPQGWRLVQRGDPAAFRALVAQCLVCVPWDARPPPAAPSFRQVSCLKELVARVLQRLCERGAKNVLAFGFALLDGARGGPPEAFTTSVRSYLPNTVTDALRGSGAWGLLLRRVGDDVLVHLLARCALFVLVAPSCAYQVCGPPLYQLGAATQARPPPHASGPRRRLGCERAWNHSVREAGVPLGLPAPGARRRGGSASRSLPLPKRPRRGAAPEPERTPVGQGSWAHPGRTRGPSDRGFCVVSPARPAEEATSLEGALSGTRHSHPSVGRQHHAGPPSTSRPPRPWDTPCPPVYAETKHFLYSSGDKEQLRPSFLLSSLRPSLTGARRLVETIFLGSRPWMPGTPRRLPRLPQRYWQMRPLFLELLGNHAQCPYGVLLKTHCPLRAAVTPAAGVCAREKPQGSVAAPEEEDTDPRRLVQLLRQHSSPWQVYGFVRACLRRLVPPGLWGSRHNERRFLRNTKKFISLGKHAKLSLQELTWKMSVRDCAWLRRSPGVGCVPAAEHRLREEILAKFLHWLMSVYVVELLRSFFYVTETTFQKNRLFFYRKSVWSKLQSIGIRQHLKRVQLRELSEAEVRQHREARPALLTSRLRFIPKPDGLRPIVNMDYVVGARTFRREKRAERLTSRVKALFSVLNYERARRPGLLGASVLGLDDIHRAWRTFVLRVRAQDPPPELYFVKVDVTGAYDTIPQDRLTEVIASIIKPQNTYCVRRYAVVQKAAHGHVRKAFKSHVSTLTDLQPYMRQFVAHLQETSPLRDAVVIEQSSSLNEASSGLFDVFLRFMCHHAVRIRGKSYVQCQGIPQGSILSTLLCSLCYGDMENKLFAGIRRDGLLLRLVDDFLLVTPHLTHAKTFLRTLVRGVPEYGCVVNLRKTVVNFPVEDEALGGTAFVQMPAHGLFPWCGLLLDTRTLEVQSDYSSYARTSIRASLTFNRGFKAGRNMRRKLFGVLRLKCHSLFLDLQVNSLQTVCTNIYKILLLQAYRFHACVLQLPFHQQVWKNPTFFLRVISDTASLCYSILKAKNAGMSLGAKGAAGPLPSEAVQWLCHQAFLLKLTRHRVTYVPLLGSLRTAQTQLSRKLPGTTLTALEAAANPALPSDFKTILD
Description: Purified human telomerase was incubated with d(TTAGGG)3 (SEQ ID NO: 1) and deoxy-nucleoside triphosphates for 90 minutes at 37° C. All reactions were done in the presence of 200 dTTP and 10 μM dATP (50,000 cpm/pmol a-^33P-dATP). Activity was determined by incubating affinity purified telomerase extract with 1 μM primer [d(TTAGGG)3] (SEQ ID NO: 1), 200 μM dTTP, 50 μM dGTP, 10 μM dATP, 10 μCi [α-^33P]dATP (2000-4000 Ci/mmol) in a buffer containing 50 mM (N-2-hydroxyethyl piperazine-N′-3 propanesulfonic acid)-NaOH pH 8.5, 1 mM MgCl2, 1 mM DTT, 5% glycerol, 0.5 mM EGTA and 100 mM KOAc in a final reaction volume of 40 μl. Primer extension products were analyzed on a 15% polyacrylamide gel containing 7 M urea. A characteristic telomerase ladder has multiple bands. If a compound is not a substrate then (TTAGGG)3TTA (21 nt) (SEQ ID NO: 2). If a compound is a chain terminator then (TTAGGG)3TTAG* (22 nt) (SEQ ID NO: 3).
Purified human telomerase was incubated with d(TTAGGG)3 (SEQ ID NO: 1) and deoxy-nucleoside triphosphates for 90 minutes at 37° C. All reactions were done in the presence of 200 dTTP and 10 μM dATP (50,000 cpm/pmol a-^33P-dATP). Activity was determined by incubating affinity purified telomerase extract with […] primer [d(TTAGGG)3] (SEQ ID NO: 1), […] [α-^33P]dATP (2000-4000 Ci/mmol) in a buffer containing 50 mM (N-2-hydroxyethyl piperazine-N′-3 propanesulfonic acid)-NaOH pH 8.5, 1 mM MgCl2, 1 mM DTT, 5% glycerol, 0.5 mM EGTA and 100 mM KOAc in a final reaction volume of 40 μl. Primer extension products were analyzed on a 15% polyacrylamide gel containing 7 M urea. A characteristic telomerase ladder has multiple bands. If a compound is not a substrate then (TTAGGG)3TTA (21 nt) (SEQ ID NO: 2). If a compound is a chain terminator then (TTAGGG)3TTAG* (22 nt) (SEQ ID NO: 3).

telomerase in HT3 cells = telomerase in HT3 cells (Homo sapiens (Human), UniProt O14746); assay: Ex vivo TRAP assay in HT3 cells; format: cell-based; details: HT3 cells; for EC50: 3 days, read-out: ExVivo TRAP EC50 (μM)- 3 Day Assay
Sequence of telomerase in HT3 cells (O14746 whole entry): as above
Sequence of telomerase in HT3 cells (O60832 whole entry partner): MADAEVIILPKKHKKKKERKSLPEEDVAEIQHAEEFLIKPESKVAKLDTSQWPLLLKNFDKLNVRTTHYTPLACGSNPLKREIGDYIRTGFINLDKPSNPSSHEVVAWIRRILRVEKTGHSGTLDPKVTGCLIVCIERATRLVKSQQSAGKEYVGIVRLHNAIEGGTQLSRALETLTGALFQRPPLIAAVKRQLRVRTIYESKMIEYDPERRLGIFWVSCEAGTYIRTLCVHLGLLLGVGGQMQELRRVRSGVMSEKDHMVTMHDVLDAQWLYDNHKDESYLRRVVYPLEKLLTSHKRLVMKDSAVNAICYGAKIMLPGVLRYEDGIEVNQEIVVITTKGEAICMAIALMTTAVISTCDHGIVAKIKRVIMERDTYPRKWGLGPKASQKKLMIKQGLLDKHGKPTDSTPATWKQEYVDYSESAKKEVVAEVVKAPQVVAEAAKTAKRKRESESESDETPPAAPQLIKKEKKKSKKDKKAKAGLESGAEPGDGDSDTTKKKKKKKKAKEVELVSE
Sequence of telomerase in HT3 cells (Q9NX24 whole entry partner): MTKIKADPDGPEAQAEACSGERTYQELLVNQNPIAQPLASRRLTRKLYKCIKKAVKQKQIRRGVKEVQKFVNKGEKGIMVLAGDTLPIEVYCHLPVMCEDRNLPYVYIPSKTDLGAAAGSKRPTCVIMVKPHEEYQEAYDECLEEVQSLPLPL
Sequence of telomerase in HT3 cells (Q9NPE3 whole entry partner): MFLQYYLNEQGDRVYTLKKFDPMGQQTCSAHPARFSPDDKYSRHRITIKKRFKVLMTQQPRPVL
Sequence of telomerase in HT3 cells (Q9NY12 whole entry partner): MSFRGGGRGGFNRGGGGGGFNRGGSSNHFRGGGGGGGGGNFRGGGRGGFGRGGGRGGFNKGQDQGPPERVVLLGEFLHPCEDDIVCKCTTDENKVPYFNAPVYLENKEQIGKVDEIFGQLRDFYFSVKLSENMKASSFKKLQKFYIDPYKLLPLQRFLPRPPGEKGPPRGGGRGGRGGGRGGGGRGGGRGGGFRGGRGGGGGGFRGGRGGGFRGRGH
Sequence of telomerase in HT3 cells (Q9BUR4 whole entry partner): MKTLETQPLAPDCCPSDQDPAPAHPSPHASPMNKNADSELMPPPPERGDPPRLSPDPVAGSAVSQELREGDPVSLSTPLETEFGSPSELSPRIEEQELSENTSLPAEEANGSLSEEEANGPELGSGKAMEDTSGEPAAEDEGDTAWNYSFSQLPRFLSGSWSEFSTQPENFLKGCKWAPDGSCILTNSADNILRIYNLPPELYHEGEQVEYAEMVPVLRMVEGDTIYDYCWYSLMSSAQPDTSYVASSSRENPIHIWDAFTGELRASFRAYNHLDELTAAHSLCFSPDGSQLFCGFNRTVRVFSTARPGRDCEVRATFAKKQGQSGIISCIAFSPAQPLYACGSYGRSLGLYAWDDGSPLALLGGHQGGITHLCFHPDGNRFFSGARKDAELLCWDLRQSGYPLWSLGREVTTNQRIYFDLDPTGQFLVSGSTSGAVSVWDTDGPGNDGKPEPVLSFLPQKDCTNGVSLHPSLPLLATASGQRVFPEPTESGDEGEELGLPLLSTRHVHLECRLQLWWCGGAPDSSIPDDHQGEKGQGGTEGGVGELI
Description: HT3 cells were treated for three days with increasing concentrations of PMPG-diisopropyloxy ester ranging from 0.2 μM to 20 μM. Cells (HT3 RPMI+10% PBS) were incubated with compound for 24 hr after which PSTS primer (phosphorothioate-d(AATCCGTCGAGCAGAGTT (SEQ ID NO: 6) containing a 5′ Cy-5 label) (7.5 μM) and fresh compound are added for an additional 24 hr. Cells were lysed and endogenous telomerase inactivated by heating (15 min, 75° C.). Products were amplified by 30 cycles of PCR under TRAP conditions set forth above and quantified. The results of two independent experiments are shown in Table 4.
HT3 cells were treated for three days with increasing concentrations of one or more of the indicated compounds ranging from 0.2 μM to 20 μM. Cells (HT3 RPMI+10% FBS) were incubated with compound for 24 hours, after which PSTS primer (phosphorothioate-d AATCCGTCGAGCAGAGTT (SEQ ID NO: 6) containing a 5′ Cy-5 label) (7.5 μM) and fresh compound were added for an additional 24 hours. Cells were lysed and endogenous telomerase inactivated by heating (15 minutes, 75° C.). Products were amplified by 30 cycles of PCR under TRAP conditions set forth in Kim et al., Science 266:2011, […] (which reference is incorporated herein in its entirety) and quantified.

Primer Ext. Assay Notes: telomerase substrate / chain terminator (telomerase) | EC50 (telomerase) [µM] | EC50 (telomerase in HT3 cells) | Compound | further results
Chain terminator. | 0.5 to 1.2 | – | CC(Cn1cnc2c(=O)[nH]c(N)nc21)OCP(=O)(O)OP(=O)(O)OP(=O)(O)O (single isomer, unassigned) [Compound 142692] | –
– | – | – | CC(C)OC(=O)OCOP(=O)(COC(C)Cn1cnc2c(=O)[nH]c(N)nc21)OCOC(=O)OC(C)C (single isomer, unassigned) [ID#142748, PMPG prodrug, S form] | IC50 (telomerase in HT3 cells; 0.2 μM to 20 μM, two independent experiments, read-out: Ex vivo Assay IC 50): > 20 µM
– | – | 11.7 µM | CC(Cn1cnc2c(=O)[nH]c(N)nc21)OCP(=O)(O)O (single isomer, unassigned) [compound 142693] | –
– | – | 1.2 µM and 3.1 µM | CC(C)OC(=O)OCOP(=O)(COC(C)Cn1cnc2c(=O)[nH]c(N)nc21)OCOC(=O)OC(C)C (single isomer, unassigned) [compound 142715] | –
Weak chain terminator. | – | – | C[C@@H](COCP(=O)(O)OP(=O)(O)OP(=O)(O)O)Cn1cnc2c(=O)[nH]c(N)nc21 (stereo in doubt) [Compound 142860] | –
Weak chain terminator. | – | – | CC(Cn1cnc2c(=O)[nH]c(N)nc21)OCP(=O)(O)OP(=O)(O)OP(=O)(O)O (stereo not drawn) [Compound 142751] | –
Weak chain terminator. | – | – | CC(Cn1cnc2c(=S)[nH]c(N)nc21)OCP(=O)(O)OP(=O)(O)OP(=O)(O)O (stereo not drawn) [Compound 142752] | –
Chain terminator | 13.5 | – | CC(Cn1cnc2c(=S)[nH]c(N)nc21)OCP(=O)(O)OP(=O)(O)OP(=O)(O)O (stereo not drawn) [Compound 142761] | –
Chain Terminator. | 1.4 | – | C=C(COCP(=O)(O)OP(=O)(O)OP(=O)(O)O)Cn1cnc2c(=O)[nH]c(N)nc21 [Compound 142810] | –
Weak chain terminator. | – | – | C[C@H](Cn1cnc2c(=O)[nH]c(N)nc21)SCP(=O)(O)OP(=O)(O)OP(=O)(O)O [Compound 142823] | –
Chain terminator. | 4.4 | – | CC(COCP(=O)(O)OP(=O)(O)OP(=O)(O)O)Cn1cnc2c(=O)[nH]c(N)nc21 (stereo not drawn) [Compound 142846] | –
Chain terminator | 1.5 | – | Nc1nc2c(ncn2CCCOCP(=O)(O)OP(=O)(O)OP(=O)(O)O)c(=O)[nH]1 [Compound 142848] | potency relative to PMPG (R-PMPGpp), times less potent (telomerase): ~2
Weak chain terminator. | – | – | Nc1nc2c(ncn2CC(OCP(=O)(O)OP(=O)(O)OP(=O)(O)O)C(F)(F)F)c(=O)[nH]1 (stereo not drawn) [Compound 142850] | –
Chain terminator. | 7.5 | – | Nc1nc2c(ncn2CC(CF)OCP(=O)(O)OP(=O)(O)OP(=O)(O)O)c(=O)[nH]1 (stereo not drawn) [Compound 142856] | –
Chain terminator. | 3.1 | – | CC(COCP(=O)(O)OP(=O)(O)OP(=O)(O)O)n1cnc2c(=O)[nH]c(N)nc21 (stereo not drawn) [Compound 142879] | –
Weak chain terminator. | – | – | CC(C)(Cn1cnc2c(=O)[nH]c(N)nc21)OCP(=O)(O)OP(=O)(O)OP(=O)(O)O [Compound 142891] | –
– | > 60 | – | C[C@H](CCn1cnc2c(=O)[nH]c(N)nc21)OCP(=O)(O)OP(=O)(O)OP(=O)(O)O [Compound 142915] | –
– | 10 | – | CC[C@H](Cn1cnc2c(=O)[nH]c(N)nc21)OCP(=O)(O)OP(=O)(O)OP(=O)(O)O [Compound 142916] | –
– | – | – | C=C(COCP(=O)(O)OP(=O)(O)OP(=O)(O)O)Cn1cnc2c(=O)[nH]c(N)nc21 [ID#142810, PMIBeG, free acid] | potency relative to PMPG (R-PMPGpp), times less potent (telomerase): approximately two times less potent than R-PMPGpp
– | – | 7.54 µM | CC(Cn1cnc2c(=S)[nH]c(N)nc21)OCP(=O)(O)O (stereo not drawn) [compound 142694] | –
– | – | 2.6 µM | C=C(COCP(=O)(O)O)Cn1cnc2c(=O)[nH]c(N)nc21 [compound 142811] | –
– | – | 5 µM | CC(Cn1cnc2c(=O)[nH]c(N)nc21)OCP(=O)(O)NCCCNCCCCN (stereo not drawn) [compound 142812] | –
– | – | 6.7 µM | C=C(COCP(=O)(O)NCCCNCCCCN)Cn1cnc2c(=O)[nH]c(N)nc21 [compound 142873] | –
– | – | 1.84 µM | CC(Cn1cnc2c(=O)[nH]c(N)nc21)OCP(=O)(O)NCCCNCCCCNCCCNP(=O)(O)COC(C)Cn1cnc2c(=O)[nH]c(N)nc21 (stereo not drawn) [compound 142942] | –
– | – | 1.44 µM | CCCCCCCCCCNP(=O)(O)COC(C)Cn1cnc2c(=O)[nH]c(N)nc21 (stereo not drawn) [compound 142962] | –
